# Results published in patent US8871767B2, “2-arylimidazo[1,2-B]pyridazine, 2-phenylimidazo[1,2-A]pyridine, and 2-phenylimidazo[1,2-A]pyrazine derivatives” (Hengrui (USA) Ltd., priority 2010, dated 2014).
# Read-outs that look alike come from different tables or passages of the source.
# Experiments:
# [1] = tested on: Hedgehog pathway activation on 10T1/2/Smo#3 cells (C3H10T1/2 cells transfected with human Smoothened receptor); assay: Hedgehog pathway activation on 10T1/2/Smo#3 cells measured by ALP activity; assay type: cell-based; conditions: Mus musculus, C3H 10T1/2, 10T1/2/Smo#3 cells
# Method: Hedgehog conditioned media was obtained by transfecting 293H cells with the full length gene encoding human Sonic Hedgehog (hShh) inserted into the pCMV6 expression vector, which contains a neomycin selectable marker and expresses the protein of interest with a C-terminal FLAG affinity tag. After selection in G418 containing media, conditioned media from Hedgehog expressing clones were tested for the ability to activate the hedgehog-responsive GLi-luciferase reporter in the Shh Light II cell line obtained by license from John Hopkins University (Taipale J, et al. Effects of oncogenic mutations in Smoothened and Patched can be reversed by cyclopamine. Nature 406: 1005-1009, 2000).
# C3H10T1/2 cells were transfected with a pCMV expression vector containing the full length gene sequence encoding the human Smoothened receptor. Pooled cells, designated 10T1/2/Smo#3, growing in G418 selection media responded to activation by 10-20% conditioned hShh media with an approximate 5-10 fold increase in alkaline phosphaste (ALP) activity over untransfected parent C3H10T1/2 cells as measured by the conversion of the free acid of 4-methylumbelliferyl phosphate to a fluorescent product.
# A test compound library was screened against hShh and 500 nM SAG (a direct agonist of the Smoothened receptor) activated 10T1/2/Smo#3 cells and Shh Light II reporter cells for the ability to block Hedgehog pathway activation. Concurrently, cell viability was measured by utilizing Celltiter-Blue® (Promega, Madison Wis.) viability assay. Active compounds were defined as those that inhibited Hedgehog signaling by greater than 50% with no concurrent loss in cell viability.
# Their inhibitory activity against Hedgehog pathway activation on 10T1/2/Smo#3 cells as measured by ALP activity and Shh Light II reporter cells as measured by luciferase activity is shown in Table 1 below. In Table 1, +++ stands for an IC50 value that is less than 0.3 μM, ++ between 0.3 and 3 μM, + between 3 and 30 μM.
# Additional data for compounds of the invention is shown below in Table 2. Their inhibitory activities against Hedgehog pathway activation are shown as IC50 values in μM on 10T1/2/Smo#3 cells as measured by ALP activity, or on Shh Light II reporter cells as measured by luciferase activity (hShh activation).
# [2] = tested on: Hedgehog pathway activation (GLi-luciferase reporter) in Shh Light II reporter cells; assay: Hedgehog pathway activation on Shh Light II reporter cells measured by luciferase activity; assay type: cell-based; conditions: Mus musculus, Shh Light II
# Procedure, shortened: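 Shh Light II reporter cells carrying a hedgehog-responsive GLi-luciferase reporter were stimulated either with 500 nM SAG, a direct Smoothened agonist, or with conditioned media containing human Sonic Hedgehog (hShh). Test compounds were evaluated for blocking this pathway activation, quantified by luciferase activity. Cell viability was monitored in parallel with the Celltiter-Blue® assay.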
# [3] = measured by ALP activity, read-out: ALP (IC50, inhibition of Hedgehog pathway activation)
# [4] = hShh activation, read-out: Shh (IC50, inhibition of Hedgehog pathway activation)
# [5] = hShh activation, ALP activity, read-out: 10T1/2/Smo#3 ALP activity (hShh Activation)
# [6] = SAG activation (500 nM SAG), read-out: Shh Light II luciferase activity (SAG activation)
# [7] = hShh activation, read-out: Shh Light II luciferase activity (hShh activation)
Compound,"IC50 [1, 3]","IC50 [2, 4]","IC50 [1, 5]","IC50 [2, 6]","IC50 [2, 7]"
"CCN(CC)C(=O)Nc1cc(-c2cn3nc(-c4cccnc4C(F)(F)F)ccc3n2)ccc1F [Example 685, 1,1-diethyl-3-(2-fluoro-5-(6-(2-(trifluoromethyl)pyridin-3-yl)imidazo[1,2-b]pyridazin-2-yl)phenyl)urea]",274 nM,139 nM,,,
"CC(C)(C)C(=O)Nc1cc(-c2cn3nc(NCCO)ccc3n2)ccc1C(F)(F)F [Example 304, N-(5-(6-(2-hydroxyethylamino)imidazo[1,2-b]pyridazin-2-yl)-2-(trifluoromethyl)phenyl)pivalamide]",393 nM,559 nM,,,
"CCCC(C)(C)C(=O)Nc1cc(-c2cn3nc(-c4cccnc4C(F)(F)F)ccc3n2)c(F)cc1Cl [Example 662, N-(2-chloro-4-fluoro-5-(6-(2-(trifluoromethyl)pyridin-3-yl)imidazo[1,2-b]pyridazin-2-yl)phenyl)-2,2-dimethylpentanamide]",161 nM,39 nM,< 300 nM,< 300 nM,< 300 nM
"CCOC(=O)Nc1cc(-c2cn3nc(-c4cccnc4C(F)(F)F)ccc3n2)ccc1F [Example 682, ethyl 2-fluoro-5-(6-(2-(trifluoromethyl)pyridin-3-yl)imidazo[1,2-b]pyridazin-2-yl)phenylcarbamate]",1740 nM,571 nM,,,
"Cc1ccc(-c2cn3nc(-c4cccnc4C(F)(F)F)ccc3n2)cc1NC(=O)C1(C)CC1 [compound 518, 1-methyl-N-(2-methyl-5-(6-(2-(trifluoromethyl)pyridin-3-yl)imidazo[1,2-b]pyridazin-2-yl)phenyl)cyclopropanecarboxamide]",71 nM,16 nM,< 300 nM,< 300 nM,< 300 nM
"COc1ccc2nc(-c3ccc(C(F)(F)F)c(NC(=O)C(C)(C)C)c3)cn2n1 [Example 125, N-(5-(6-methoxyimidazo[1,2-b]pyridazin-2-yl)-2-(trifluoromethyl)phenyl)pivalamide]",1250 nM,435 nM,,,
Cc1ccc(-c2cn3nc(-c4ccc(NC(=O)CCCCC(=O)NO)cc4C(F)(F)F)ccc3n2)cc1NC(=O)C(C)(C)C [compound 531],1140 nM,586 nM,,,
"Cc1c(-c2ccccc2)nc2ccc(N3CCN(C(=O)NC4CCCCC4)CC3)nn12 [Example 159, N-cyclohexyl-4-(3-methyl-2-phenylimidazo[1,2-b]pyridazin-6-yl)piperazine-1-carboxamide]",435 nM,440 nM,,,
"Cc1ccc(-c2cn3nc(N4CCOCC4)ccc3n2)cc1NC(=O)C(C)(C)C [Example 128, N-(2-methyl-5-(6-morpholinoimidazo[1,2-b]pyridazin-2-yl)phenyl)pivalamide]",422 nM,> 10000 nM,300 to 3000 nM,3000 to 30000 nM,3000 to 30000 nM
"COc1ccc2nc(-c3ccc(C)c(NC(=O)C(C)(C)C)c3)c(Cl)n2n1 [Example 109, N-(5-(3-chloro-6-methoxyimidazo[1,2-b]pyridazin-2-yl)-2-methylphenyl)pivalamide]",7000 nM,2650 nM,3000 to 30000 nM,3000 to 30000 nM,300 to 3000 nM
"COc1cnccc1-c1ccc2nc(-c3ccc(C(F)(F)F)c(NC(=O)C(C)(C)C)c3)cn2n1 [Example 382, N-(5-(6-(3-methoxypyridin-4-yl)imidazo[1,2-b]pyridazin-2-yl)-2-(trifluoromethyl)phenyl)pivalamide]",536 nM,1220 nM,,,
"CCOc1ccc2nc(-c3ccc(C(F)(F)F)c(NC(=O)C(C)(C)C)c3)cn2n1 [Example 136, N-(5-(6-ethoxyimidazo[1,2-b]pyridazin-2-yl)-2-(trifluoromethyl)phenyl)pivalamide]",452 nM,158 nM,,,
"O=S(=O)(NC1CC1)c1cc(-c2cn3nc(-c4cccnc4C(F)(F)F)ccc3n2)ccc1Cl [Example 702, 2-chloro-N-cyclopropyl-5-(6-(2-(trifluoromethyl)pyridin-3-yl)imidazo[1,2-b]pyridazin-2-yl)benzenesulfonamide]",> 10000 nM,3980 nM,,,
"CC(C)(C)C(=O)Nc1cc(-c2cn3nc(N4CCC(F)(F)C4)ccc3n2)ccc1C(F)(F)F [Example 236, N-(5-(6-(3,3-difluoropyrrolidin-1-yl)imidazo[1,2-b]pyridazin-2-yl)-2-(trifluoromethyl)phenyl)pivalamide]",100 nM,289 nM,,,
"Cc1c(-c2ccccc2)nc2ccc(N3CCN(C(=O)c4ccccc4)CC3)nn12 [Example 154, (4-(3-methyl-2-phenylimidazo[1,2-b]pyridazin-6-yl)piperazin-1-yl)(phenyl)methanone]",2890 nM,3400 nM,,,
"C[C@@H]1CN(c2ccc3nc(-c4ccc(OC(F)(F)F)c(NC(=O)C(C)(C)C)c4)cn3n2)C[C@H](C)O1 [Example 463, N-(5-(6-((2R,6S)-2,6-dimethylmorpholino)imidazo[1,2-b]pyridazin-2-yl)-2-(trifluoromethoxy)phenyl)pivalamide]",1530 nM,,,,
"CCOC(=O)c1ccccc1-c1ccc2nc(-c3ccc(C(F)(F)F)c(NC(=O)C(C)(C)C)c3)cn2n1 [Example 257, ethyl 2-(2-(3-pivalamido-4-(trifluoromethyl)phenyl)imidazo[1,2-b]pyridazin-6-yl)benzoate]",497 nM,,,,
"CC(C)(C)C(=O)Nc1cc(-c2cn3nc(N4CCOCC4)ccc3n2)ccc1OC(F)(F)F [Example 267, N-(5-(6-morpholinoimidazo[1,2-b]pyridazin-2-yl)-2-(trifluoromethoxy)phenyl)pivalamide]",2080 nM,,,,
"CC(C)(C)C(=O)Nc1cc(-c2cn3nc(N4CCN(S(C)(=O)=O)CC4)ccc3n2)ccc1OC(F)(F)F [Example 268, N-(5-(6-(4-(methylsulfonyl)piperazin-1-yl)imidazo[1,2-b]pyridazin-2-yl)-2-(trifluoromethoxy)phenyl)pivalamide]",1940 nM,,,,
"C[C@@H]1CN(c2ccc3nc(-c4ccc(C(F)(F)F)c(NC(=O)C(C)(C)C)c4)cn3n2)C[C@H](C)O1 [Example 250, N-(5-(6-(2,6-dimethylmorpholino)imidazo[1,2-b]pyridazin-2-yl)-2-(trifluoromethyl)phenyl)pivalamide]",259 nM,,,,
"CCOc1ccc2nc(-c3ccc(OC(F)(F)F)c(NC(=O)C(C)(C)C)c3)cn2n1 [Example 246, N-(5-(6-ethoxyimidazo[1,2-b]pyridazin-2-yl)-2-(trifluoromethoxy)phenyl)pivalamide]",1320 nM,,,,
"CC(C)(C)C(=O)Nc1cc(-c2cn3nc(-c4ccccc4F)ccc3n2)ccc1C1CC1 [Example 271, N-(2-cyclopropyl-5-(6-(2-fluorophenyl)imidazo[1,2-b]pyridazin-2-yl)phenyl)pivalamide]",246 nM,,,,
"CC(C)(C)C(=O)Nc1cc(-c2cn3nc(Cl)ccc3n2)ccc1C1CC1 [Example 270, N-(5-(6-chloroimidazo[1,2-b]pyridazin-2-yl)-2-cyclopropylphenyl)pivalamide]",9430 nM,,,,
"CCCCOc1ccc2nc(-c3ccc(OC(F)(F)F)c(NC(=O)C(C)(C)C)c3)cn2n1 [Example 249, N-(5-(6-butoxyimidazo[1,2-b]pyridazin-2-yl)-2-(trifluoromethoxy)phenyl)pivalamide]",889 nM,,,,
"CC(C)Oc1ccccc1-c1ccc2nc(-c3ccc(C(F)(F)F)c(NC(=O)C(C)(C)C)c3)cn2n1 [Example 251, N-(5-(6-(2-isopropoxyphenyl)imidazo[1,2-b]pyridazin-2-yl)-2-(trifluoromethyl)phenyl)pivalamide]",518 nM,,,,
"CC(=O)c1cccc(-c2ccc3nc(-c4ccc(C(F)(F)F)c(NC(=O)C(C)(C)C)c4)cn3n2)c1 [Example 254, N-(5-(6-(3-acetylphenyl)imidazo[1,2-b]pyridazin-2-yl)-2-(trifluoromethyl)phenyl)pivalamide]",360 nM,,,,
